The values that follow come from article PMC7308271, “Discovery of a new class of orthosteric antagonists with nanomolar potency at extrasynaptic GABAA receptors” (Scientific Reports, 2020).

For experiment [1], the system named is tonic currents in dentate gyrus granule cells. To be noted: rat slice recordings, cited from earlier work.
Another experiment concerns the target T1, human BGT1 (Homo sapiens, UniProt P48065).
T1 construct: expressed in transfected cells; host or cells: δ-HEK cells, transient transfection (pcDNA5/FRT)
T1 sequence (P48065 1-614): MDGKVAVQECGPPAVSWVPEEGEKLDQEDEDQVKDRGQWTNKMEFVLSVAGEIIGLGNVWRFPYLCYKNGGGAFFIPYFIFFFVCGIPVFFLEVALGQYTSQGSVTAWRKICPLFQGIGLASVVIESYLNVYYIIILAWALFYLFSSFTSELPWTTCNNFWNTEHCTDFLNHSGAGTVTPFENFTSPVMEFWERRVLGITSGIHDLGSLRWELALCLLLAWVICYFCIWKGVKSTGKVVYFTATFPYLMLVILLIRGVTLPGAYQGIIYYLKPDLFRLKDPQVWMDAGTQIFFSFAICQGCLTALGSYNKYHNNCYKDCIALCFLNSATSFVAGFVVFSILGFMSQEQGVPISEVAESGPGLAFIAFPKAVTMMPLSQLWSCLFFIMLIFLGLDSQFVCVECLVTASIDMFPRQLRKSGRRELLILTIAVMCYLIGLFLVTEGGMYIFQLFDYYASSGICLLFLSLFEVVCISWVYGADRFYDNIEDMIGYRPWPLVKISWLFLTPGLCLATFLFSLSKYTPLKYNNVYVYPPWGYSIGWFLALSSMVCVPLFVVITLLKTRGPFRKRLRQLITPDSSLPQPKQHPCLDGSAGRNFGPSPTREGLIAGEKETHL
The experiment is described as follows: Fluorescence interference control: BGT1-mediated GABA uptake in the FMP assay. The format is cell-based. To be noted: 110 μM GABA uptake by BGT1 in δ-HEK cells; 2027 at 30, 10, 3 μM. The source says: (§1) To express recombinant GABAΑ receptors human α1, α2, α3, α5, α6, β2, γ2 (pcDNA3.1/Zeo) and α4, β1 (pUNIV)[26] subunit cDNA were transiently transfected into either δ-HEK or HEK background cells. δ-HEK cells were transfected with α- and β-subunits in a 1:1 ration whereas HEK background cells were transfected with α-, β- and γ-subunits in a 1:1:2 ratio. Human BGT1 (pcDNA5/FRT)[43] was transiently transfected into the δ-HEK cell line. δ-HEK cells transfected for whole-cell patch-clamp recordings were co-transfected with green fluorescent protein (GFP) as well as α- and β-subunits in a 0.5:1:1 ratio (0.8 μg + 1.6 μg + 1.6 μg in a 6 cm dish) in order to identify transfected cells. The transfection was carried out using Polyfect as transfection reagent according to the manufactures protocol expect for using half the recommended volume of Polyfect.
assay (perf ormed essentially as previously described in methods section and based on Al-Khawaja et al.).
in d-HEK cells was not decreased/quenched by 2027 in any of the tested concentrations. Data are shown as
means ± SD f rom a representative expe riment perf orme d in triplicate (n=2).
BGT1 expressed in HEK-δ cells

In experiment [2] the target is T2, human α4β1δ GABAΑ receptor (Homo sapiens, UniProt P18505+P48169).
T2 construct: expressed in transfected cells; host or cells: δ-HEK (HEK293 Flp-In stably expressing human δ), transiently transfected with α4 and β1 1:1
As to the kind of experiment: FMP assay at α4β1δ GABAA receptors in HEK cells (screening, concentration-inhibition, Schild analysis). As to conditions: HEK293, read-out: inhibition of the GABA EC80 signal, primary screening, 10 μM, singlicates. The format is cell-based.
From the text: We have previously established a FLIPR membrane potential (FMP) assay to study recombinant δ-containing GABAΑRs entailing a HEK293 Flp-In cell line stably expressing the human δ-subunit which is suitable for co-transfection with any desired α/β subunits. Initially, we validated the applicability of the FMP assay for efficient compound screening in 96-well microtiter plates using the human α4β1δ GABAΑR heterologously expressed in HEK cells. This receptor was chosen as we have previously shown this system to be reliable in expressing δ-containing receptors. To this end, we determined the Z′-factor, which is a statistical factor used to measure the suitability of an assay for high throughput screening.
Thus, we went on to further characterize 2027 by making a full concentration-inhibition curve.
HEK293 cells were maintained in DMEM containing GlutaMAX-I, supplemented with 10% FBS and 1% penicillin-streptomycin and incubated at 37 °C and a humidity of 5% CO2. For expression of δ-containing GABAΑ receptors, a HEK293 Flp-In^ΤΜ cell line stably expressing the human GABAΑ δ-subunits (referred to as δ-HEK) was used and the γ-containing subtypes was expressed in a background HEK293 Flp-In^ΤΜ cell line stably expressing the G-protein coupled peptide receptor NPBWR2 (referred to as HEK background)[26], both positively selected for using 200 μg/mL hygromycin B. α1β2γ2 receptors were stably expressed in a HEK293 cell line maintained as above but with no selection (gift from Marianne L. Jensen, Neurosearch).
as §1
The FMP assay was performed as previously described with a few modifications. Briefly, HEK cells were transfected as described[26] and 16–20 hours later plated (50,000 cells/well in DMEM medium) into clear-bottomed black 96-well plates coated with poly-D-lysine and the assay performed 20–28 hours later. The assay protocol including the FMP blue dye incorporation into membranes was exactly as described in Falk-Petersen et al.[26]. […] Data was obtained as changes in fluorescence units (∆RFU) by measuring emission at 560 nm caused by excitation at 530 nm. Unless otherwise mentioned in the text or figure legends experiments were performed in at least three independent experiments each using three technical replicates.
Data obtained in the FMP assay are given as relative changes in fluorescence units (ΔRFU) by subtracting the average of the baseline fluorescence signal from the peak fluorescence signal after compound addition. All raw traces were inspected manually and peak signals resulting from compound/buffer addition together with signal artefacts were omitted from the analysis.
The concentration-response curves obtained in the FMP assay for both agonists (determining EC50 values) and antagonists (determining IC50 values) were fitted using the four-parameter concentration-response model: Response=bottom+top−bottom/1+10^[(logEC50-A)⋅nH] EC/IC50 values describe the concentration resulting in the half-maximal response (halfway between top and bottom), and nΗ is the Hill coefficient.

Where only a bound is given, the exact number is not on record here.

As a reminder, the IC50 is the concentration that inhibits the measured activity by half. As a reminder, the inhibition is how much of the control response was suppressed.

T2 sequence (P48169 36-554): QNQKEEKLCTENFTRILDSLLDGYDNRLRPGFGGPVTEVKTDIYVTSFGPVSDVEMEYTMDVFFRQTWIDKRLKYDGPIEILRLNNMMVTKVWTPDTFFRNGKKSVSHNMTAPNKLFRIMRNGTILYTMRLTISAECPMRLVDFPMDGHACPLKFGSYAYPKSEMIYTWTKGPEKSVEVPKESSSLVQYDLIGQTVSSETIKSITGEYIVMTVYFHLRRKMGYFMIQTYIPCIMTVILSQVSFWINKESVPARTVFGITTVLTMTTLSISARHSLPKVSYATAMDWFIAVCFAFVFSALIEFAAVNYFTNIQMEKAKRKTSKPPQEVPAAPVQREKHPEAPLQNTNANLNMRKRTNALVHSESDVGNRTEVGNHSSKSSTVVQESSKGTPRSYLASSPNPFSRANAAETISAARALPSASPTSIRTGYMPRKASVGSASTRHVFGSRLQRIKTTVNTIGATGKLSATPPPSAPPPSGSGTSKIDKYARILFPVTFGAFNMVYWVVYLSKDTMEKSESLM
T2 sequence (P18505 26-474): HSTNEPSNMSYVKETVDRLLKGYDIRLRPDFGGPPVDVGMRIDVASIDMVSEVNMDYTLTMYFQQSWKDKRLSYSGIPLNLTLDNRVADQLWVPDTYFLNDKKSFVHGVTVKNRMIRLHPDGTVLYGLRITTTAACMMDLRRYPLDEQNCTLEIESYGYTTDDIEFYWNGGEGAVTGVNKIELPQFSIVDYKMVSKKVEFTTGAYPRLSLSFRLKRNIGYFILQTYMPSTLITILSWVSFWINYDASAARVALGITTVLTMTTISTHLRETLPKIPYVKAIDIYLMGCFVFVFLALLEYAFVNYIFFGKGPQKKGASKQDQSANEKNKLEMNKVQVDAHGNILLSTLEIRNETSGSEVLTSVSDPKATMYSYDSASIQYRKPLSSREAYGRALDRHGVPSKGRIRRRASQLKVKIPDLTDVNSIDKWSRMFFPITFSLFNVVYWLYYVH
T2 sequence (O14764 25-452 partner): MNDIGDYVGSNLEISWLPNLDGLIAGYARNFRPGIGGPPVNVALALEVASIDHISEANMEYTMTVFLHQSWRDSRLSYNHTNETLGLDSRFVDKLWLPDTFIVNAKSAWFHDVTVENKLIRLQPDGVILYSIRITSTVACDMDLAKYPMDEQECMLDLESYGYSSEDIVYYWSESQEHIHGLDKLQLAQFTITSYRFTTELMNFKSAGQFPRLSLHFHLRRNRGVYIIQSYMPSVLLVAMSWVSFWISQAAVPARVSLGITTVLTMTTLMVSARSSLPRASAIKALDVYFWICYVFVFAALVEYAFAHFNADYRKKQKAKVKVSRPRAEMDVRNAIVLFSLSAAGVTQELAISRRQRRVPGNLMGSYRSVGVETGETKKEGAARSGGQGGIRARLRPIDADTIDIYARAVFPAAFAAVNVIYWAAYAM

In the case of `Oc1noc(C2CCNCC2)c1CCC(c1ccccc1)c1ccccc1` [DPP-4-PIOL], in experiment [1] (read-out: IC50 inhibiting tonic currents), the IC50 was 0.87 nM. Further, the “potency in inhibiting tonic over phasic currents” value in experiment [1] is listed as “approximately 20 times”.

As for `COc1ccc(-c2ccc(=N)n(CCCC(=O)O)n2)cc1` [Gabazine, reference compound], the “interference with / quenching of the fluorescence signal” value on human BGT1 is listed as “do not interfere”.

As for `COc1ccccc1NC(=O)C1CCN(Cc2ccco2)CC1` [compound 2100, 1-(furan-2-ylmethyl)-N-(2-methoxyphenyl)piperidine-4-carboxamide], the inhibition at 10 µM in experiment [2] was > 50%.
